Results taken from US20250195469A1, “COMPANION DIAGNOSTICS AND STRATEGIES FOR TREATMENT WITH AN ARYL HYDROCARBON RECEPTOR AGONIST COMPOUND” (AZORA THERAPEUTICS, INC., priority 2022, published 2025).
Like-named read-outs stand apart in the source and are kept apart here.

Columns and labels:
AhR = target: T1, AhR (Homo sapiens, UniProt P35869); assay: Inhaled AhR antagonist combined with indirubin therapy; assay type: in vivo; conditions: two weeks, with nanoparticulate indirubin
T1 construct: takes a biopsy of the treated skin from this treated spot; from tissue; host or cells: human skin biopsy, epidermal cells
T1 sequence (P35869 11-848): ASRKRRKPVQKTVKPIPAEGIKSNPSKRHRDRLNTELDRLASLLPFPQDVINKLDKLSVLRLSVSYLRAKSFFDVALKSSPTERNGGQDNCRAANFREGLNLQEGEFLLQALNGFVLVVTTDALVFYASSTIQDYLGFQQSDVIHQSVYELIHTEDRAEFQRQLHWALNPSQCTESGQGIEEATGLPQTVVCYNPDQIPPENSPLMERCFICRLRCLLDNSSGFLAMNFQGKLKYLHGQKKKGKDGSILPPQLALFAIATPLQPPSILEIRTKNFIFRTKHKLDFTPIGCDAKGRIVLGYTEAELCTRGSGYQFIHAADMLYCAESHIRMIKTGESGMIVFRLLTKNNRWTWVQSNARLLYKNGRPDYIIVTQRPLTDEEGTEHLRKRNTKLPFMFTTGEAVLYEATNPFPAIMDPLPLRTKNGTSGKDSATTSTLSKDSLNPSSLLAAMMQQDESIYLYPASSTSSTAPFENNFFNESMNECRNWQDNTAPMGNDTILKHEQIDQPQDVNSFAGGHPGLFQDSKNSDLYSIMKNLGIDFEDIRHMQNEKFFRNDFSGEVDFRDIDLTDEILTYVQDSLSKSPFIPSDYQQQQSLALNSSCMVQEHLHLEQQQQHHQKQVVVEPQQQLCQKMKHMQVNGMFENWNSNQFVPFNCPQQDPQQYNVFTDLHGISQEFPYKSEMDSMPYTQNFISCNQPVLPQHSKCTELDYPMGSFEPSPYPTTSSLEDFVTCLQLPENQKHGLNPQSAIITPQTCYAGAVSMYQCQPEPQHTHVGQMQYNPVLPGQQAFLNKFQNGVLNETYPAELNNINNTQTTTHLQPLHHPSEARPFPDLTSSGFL
Source text: During the course of therapy with a nanoparticulate form of synthetic indirubin for the treatment of gastritis, a patient complains of ad adverse event, in this case shortness of breath and difficulty doing physical exercise. The patient is responding well to therapy but the doctor is concerned about possible development of additional PAH-like symptoms. The doctor maintains the indirubin therapy but prescribes the patient an inhalable AhR antagonist, in this case inhaled 1-Methyl-N-[2-methyl-4-[2-(2-methylphenyl)diazenyl]phenyl-1H-pyrazole-5-carboxamide (CH223191) that is designed to reduce AhR signaling in the lung epithelium.

PBMCs = assay: EROD activity of PBMCs stimulated with AhR agonist; assay type: cell-based, human; conditions: patient PBMCs, 24 hours, compared to healthy normal PBMCs
Method: Prior to starting therapy with a topical AhR agonist for the treatment of pustular psoriasis, a blood sample is collected. PBMCs are processed and sent out fresh for stimulation with and without the AhR agonist FICZ. After 24 hours, EROD activity is measured. […] The ratio of stimulated to unstimulated EROD activity may be indicative of baseline AhR activity and responsiveness to AhR therapy. […] Based on the data, the patient's dermatologist prescribes the topical AhR agonist for the treatment of pustular psoriasis.

hamsters = conditions: cited from earlier work
mice = conditions: chronic dosing, only starting after 15 days of exposure; cited from earlier work
guinea pigs = conditions: cited from earlier work
ALT and AST = assay: Liver enzymes after indigo modified release tablet, with or without lead in dose; assay type: in vivo, human
Method: As such, a product label identified a clinical regiment whereby a lead in dose of 5 mg indigo is administered once daily for 2 consecutive days prior to beginning the 50 mg therapeutic dose.

CYP1A1 = tested on: CYP1A1
Method: (§1) A patient with Crohn's disease is given 50 mg of indirubin in an immediate release tablet once daily. A diagnostic is set to evaluate the mRNA levels of both CYP1A1 and CYP1A2 in the blood using RT-PCR of peripheral blood mononuclear cell mRNA every two weeks.

CYP1A2 = tested on: CYP1A2
Method: as §1

[1] = Method: A patient with pouchitis is being treated with an oral suspension containing 10 mg indirubin twice daily. Plasma samples are taken weekly during the first 6 weeks of therapy and sent out for PK analysis for indirubin levels. […] The physician reduces the dose to 2.5 mg once per day.
[2] = tested on: relapsing-remitting multiple sclerosis patients; conditions: low dose (0.6 mg/day); cited from earlier work
[3] = Echocardiogram monitoring during linomide therapy (REMS); assay type: in vivo, human; conditions: oral tablet, after 6 months
Source text: Based on the label of an orally administered tablet containing linomide, a patient must enroll in a risk evaluation and mitigation strategy (REMS). In the case of this drug, patients must comply with ongoing echocardiogram monitoring requirements. […] The prescribing physician evaluates the echocardiogram an decides the patient should be discontinued. The physician passes this information along to the REMS program by logging the data into a secure server. Subsequently the server alerts the patient and the prescribing pharmacy that the patient is no longer eligible to refill their linomide tablet prescription.

[4] = tested on: multiple sclerosis patients; conditions: Phase 3; cited from earlier work
[5] = AhR agonist metabolism in blood microsomes, AhR-luciferase reporter readout; assay type: in vitro ADME, human; conditions: 10 nM, 24 hours
Method: Prior to beginning therapy with oral meisoindigo for the treatment of rheumatoid arthritis, a physician orders a diagnostic to assess ability of the subject to adequately metabolize meisoindigo. Blood microsomes are extracted from the subject and incubated in medium containing 10 nM meisoindigo for 24 hours. The microsomes are removed via ultra-centrifugation and the remaining medium is added to a reporter cell line (such as product IB06001 sold by Indigo Biosciences) that expresses luciferase behind the promoter for human CYP1A1 and which can detect AhR agonist activity. […] Based on the results of this diagnostic, the physician believes the patient has a defect making them a poor metabolizer of meisoindigo and recommends against the use of meisoindigo due to the possibility of development of adverse events.

[6] = Headaches with delayed release indirubin, omeprazole lead in dose; conditions: 20 mg delayed-release capsule before delayed release indirubin, first week
[7] = tested on: plaque psoriasis patients; conditions: phase 3, plaque psoriasis patients; cited from earlier work
[8] = 50 mg immediate release tablet once daily, after two weeks
[9] = two weeks after reduction to 10 mg every other day

## Cc1ccccc1N=Nc1ccc(NC(=O)c2ccnn2C)c(C)c1 [CH223191]
AhR
  shortness of breath after combination therapy: no longer has shortness of breath

## O=Cc1c2c(cc3c1=Nc1ccccc1-3)=Nc1ccccc1-2 [FICZ, 6-formylindolo[3,2−b]carbazole]
PBMCs
  EROD activity after stimulation: high EROD activity

## Clc1cc2c(cc1Cl)Oc1cc(Cl)c(Cl)cc1O2 [TCDD, 2,3,7,8-tetrachlorodibenzo-p-dioxin]
hamsters
  LD50: over 5000 μg/kg
mice
  mean arterial blood pressure: increased
Guinea pigs
  LD50: 1 µg/kg

## O=C1/C(=C2\Nc3ccccc3C2=O)Nc2ccccc21 [indigo]
ALT and AST; 50 mg twice daily modified release tablet, 2 days
  patients with the ALT and AST increase: 50%
ALT and AST; 50 mg twice daily modified release tablet, 2 days following administration
  increase in ALT and AST: 5 ×
ALT and AST; lead in dose 5 mg once daily for 2 days before 50 mg therapeutic dose, 2 days following therapeutic dosing
  changes in ALT or AST levels: did not produce any notable changes

## O=C1Nc2ccccc2/C1=C1/Nc2ccccc2C1=O [indirubin]
CYP1A1; [8]
  increase of CYP1A1 mRNA in PBMCs: 12 ×
CYP1A1; [9]
  increase of CYP1A1 mRNA in PBMCs compared to baseline: 15 ×
CYP1A2; [8]
  increase of CYP1A2 mRNA in PBMCs: 3 ×
CYP1A2; [9]
  increase of CYP1A2 mRNA in PBMCs compared to baseline: 6 ×
[1]; week 1, oral suspension 10 mg twice daily
  plasma indirubin level: 5 ng/mL
[1]; week 2, oral suspension 10 mg twice daily
  plasma indirubin level: 25 ng/mL
[1]; week 3, 2.5 mg once per day
  plasma indirubin level: 2 ng/mL
[1]; week 4, 2.5 mg once per day
  plasma indirubin level: 3 ng/mL
[1]; week 5, 2.5 mg once per day
  plasma indirubin level: 2 ng/mL
[1]; week 6, 2.5 mg once per day
  plasma indirubin level: 3 ng/mL

## CCN(C(=O)c1c(O)c2c(Cl)cccc2n(C)c1=O)c1ccccc1 [laquinimod]
[2]
  trial's primary endpoint: failed to meet the trial's primary endpoint

## CN(C(=O)c1c(O)c2ccccc2n(C)c1=O)c1ccccc1 [linomide, linomide (roquinimex)]
[3]
  echocardiogram findings: signs of valvar heart disease
[4]
  toxicity leading to termination of development: cardiovascular toxicity, specifically pleuritis, pericarditis, and chest pain

## CN1C(=O)/C(=C2/C(=O)Nc3ccccc32)c2ccccc21 [meisoindigo]
[5]; microsomes from a healthy normal individual
  fraction of added compound metabolized: 99%
[5]; patient blood microsomes
  metabolism in presence of microsomes: little to no meisoindigo was metabolized

## COc1ccc2[nH]c([S+]([O-])Cc3ncc(C)c(OC)c3C)nc2c1 (stereo not shown) [omeprazole]
[6]
  effect of lead in dose on headaches: reduce the development of headaches

## CC(C)c1c(O)cc(/C=C/c2ccccc2)cc1O [tapinarof]
[7]
  patients who developed inflammation of the hair follicle (folliculitis): Over 20%
